From ChEMBL document CHEMBL1143264 (Bioorg Med Chem Lett, 2009)

Tests used:
Assay type in all cases: cell membranes
[1] = target: Neuronal acetylcholine receptor subunit alpha-7 (Rattus norvegicus, UniProt Q05941); assay: Displacement of [125I]alpha-Bungarotoxin from alpha-7 nAchR in rat brain cortex membrane
[2] = target: Neuronal acetylcholine receptor; alpha4/beta2 (Rattus norvegicus, UniProt P09483+P12390); assay: Displacement of [3H]epibatidine from alpha-4-beta-2 nAchR in rat brain cortex membrane
Chain of Neuronal acetylcholine receptor; alpha4/beta2 (P09483 whole entry): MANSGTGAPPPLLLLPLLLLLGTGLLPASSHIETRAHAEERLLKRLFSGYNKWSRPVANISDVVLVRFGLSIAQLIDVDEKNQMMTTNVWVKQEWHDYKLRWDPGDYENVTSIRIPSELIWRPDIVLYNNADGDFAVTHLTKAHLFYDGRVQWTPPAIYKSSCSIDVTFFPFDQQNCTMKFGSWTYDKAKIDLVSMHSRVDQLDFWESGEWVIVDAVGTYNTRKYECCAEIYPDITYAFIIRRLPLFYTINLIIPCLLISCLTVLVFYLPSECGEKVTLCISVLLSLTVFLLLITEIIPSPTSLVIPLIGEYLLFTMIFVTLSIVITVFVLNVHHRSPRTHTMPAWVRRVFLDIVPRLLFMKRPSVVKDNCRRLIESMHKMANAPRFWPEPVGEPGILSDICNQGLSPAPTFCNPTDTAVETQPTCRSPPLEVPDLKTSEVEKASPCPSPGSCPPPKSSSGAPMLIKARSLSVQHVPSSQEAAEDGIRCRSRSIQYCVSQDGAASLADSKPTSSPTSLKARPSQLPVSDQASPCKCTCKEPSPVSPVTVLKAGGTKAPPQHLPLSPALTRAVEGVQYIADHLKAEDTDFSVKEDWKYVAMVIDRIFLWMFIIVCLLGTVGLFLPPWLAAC
Chain of Neuronal acetylcholine receptor; alpha4/beta2 (P12390 whole entry): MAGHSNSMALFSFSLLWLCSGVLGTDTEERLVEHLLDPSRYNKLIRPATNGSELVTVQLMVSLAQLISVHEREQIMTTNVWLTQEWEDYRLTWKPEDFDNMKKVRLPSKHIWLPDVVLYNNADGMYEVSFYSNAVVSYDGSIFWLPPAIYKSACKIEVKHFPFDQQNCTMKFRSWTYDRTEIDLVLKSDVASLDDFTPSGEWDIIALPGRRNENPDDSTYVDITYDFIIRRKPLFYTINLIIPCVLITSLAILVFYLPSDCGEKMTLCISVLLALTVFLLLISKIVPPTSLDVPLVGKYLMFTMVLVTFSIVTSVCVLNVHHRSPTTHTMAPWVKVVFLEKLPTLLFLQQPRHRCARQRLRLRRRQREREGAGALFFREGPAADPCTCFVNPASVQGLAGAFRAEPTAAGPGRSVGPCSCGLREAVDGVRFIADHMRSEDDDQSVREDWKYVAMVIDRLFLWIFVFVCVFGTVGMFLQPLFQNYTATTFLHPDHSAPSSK

[3] = target: T1, Adrenergic receptor alpha-2 (Rattus norvegicus, UniProt P22086+P19328+P22909); assay: Displacement of [3H]RS 79948-197 from alpha-2 adrenergic receptor in rat brain cortex membrane
T1 sequence (P22086 whole entry): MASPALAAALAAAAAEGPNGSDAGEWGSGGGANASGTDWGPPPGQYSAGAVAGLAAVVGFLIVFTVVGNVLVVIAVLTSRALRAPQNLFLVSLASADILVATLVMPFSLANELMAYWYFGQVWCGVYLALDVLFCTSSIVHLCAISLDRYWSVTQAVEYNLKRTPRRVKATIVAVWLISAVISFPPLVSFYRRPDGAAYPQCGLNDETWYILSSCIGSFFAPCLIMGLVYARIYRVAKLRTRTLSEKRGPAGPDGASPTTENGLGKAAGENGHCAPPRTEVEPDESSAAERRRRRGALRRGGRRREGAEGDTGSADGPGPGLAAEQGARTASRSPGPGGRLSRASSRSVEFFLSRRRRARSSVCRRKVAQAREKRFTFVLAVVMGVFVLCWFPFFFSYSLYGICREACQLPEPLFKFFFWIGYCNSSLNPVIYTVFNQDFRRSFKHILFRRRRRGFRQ
T1 sequence (P19328 whole entry): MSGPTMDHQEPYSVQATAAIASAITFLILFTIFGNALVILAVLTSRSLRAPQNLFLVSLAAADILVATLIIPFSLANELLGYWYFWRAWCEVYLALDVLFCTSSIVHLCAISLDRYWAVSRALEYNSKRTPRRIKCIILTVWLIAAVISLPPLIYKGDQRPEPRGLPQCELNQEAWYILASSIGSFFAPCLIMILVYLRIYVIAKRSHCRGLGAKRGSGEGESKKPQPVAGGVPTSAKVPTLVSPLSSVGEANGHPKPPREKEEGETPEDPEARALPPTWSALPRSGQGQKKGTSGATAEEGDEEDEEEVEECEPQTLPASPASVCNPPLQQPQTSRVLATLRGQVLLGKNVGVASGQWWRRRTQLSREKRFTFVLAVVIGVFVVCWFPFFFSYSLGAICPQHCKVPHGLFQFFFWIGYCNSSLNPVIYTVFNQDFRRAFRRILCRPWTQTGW
T1 sequence (P22909 whole entry): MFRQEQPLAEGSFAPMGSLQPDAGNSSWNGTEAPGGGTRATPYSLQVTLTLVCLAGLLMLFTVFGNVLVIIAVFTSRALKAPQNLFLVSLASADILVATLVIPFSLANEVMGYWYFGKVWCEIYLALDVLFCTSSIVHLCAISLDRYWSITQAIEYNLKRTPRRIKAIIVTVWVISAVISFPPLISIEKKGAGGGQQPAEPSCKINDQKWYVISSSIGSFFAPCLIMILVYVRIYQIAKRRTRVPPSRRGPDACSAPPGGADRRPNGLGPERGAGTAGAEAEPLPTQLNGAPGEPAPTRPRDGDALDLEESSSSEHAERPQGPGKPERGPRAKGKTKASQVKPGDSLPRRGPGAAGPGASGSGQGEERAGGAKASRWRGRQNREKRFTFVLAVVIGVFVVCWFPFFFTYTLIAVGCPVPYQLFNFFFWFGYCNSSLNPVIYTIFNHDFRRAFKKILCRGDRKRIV

Chain of Neuronal acetylcholine receptor subunit alpha-7 (Q05941 whole entry): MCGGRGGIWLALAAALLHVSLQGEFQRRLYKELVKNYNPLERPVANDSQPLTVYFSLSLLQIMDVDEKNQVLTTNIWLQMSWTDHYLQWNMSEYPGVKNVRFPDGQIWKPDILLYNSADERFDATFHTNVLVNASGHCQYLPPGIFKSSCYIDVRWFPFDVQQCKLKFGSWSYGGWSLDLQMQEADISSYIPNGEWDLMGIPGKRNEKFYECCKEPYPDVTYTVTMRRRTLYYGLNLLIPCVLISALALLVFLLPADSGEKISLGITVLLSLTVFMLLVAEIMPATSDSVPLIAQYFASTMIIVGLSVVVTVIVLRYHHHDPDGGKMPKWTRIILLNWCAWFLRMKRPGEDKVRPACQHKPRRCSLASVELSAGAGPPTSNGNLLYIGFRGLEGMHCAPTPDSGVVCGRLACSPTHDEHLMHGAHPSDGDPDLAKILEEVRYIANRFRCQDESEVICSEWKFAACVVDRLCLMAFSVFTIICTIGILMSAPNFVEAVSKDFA

SMILES | Ki [1] | Ki [2] | Ki [3]
CN1CCC[C@H]1[C@H]1CNC(=O)O1 | 100 µM | 35 µM | 
CN1CCC[C@@H]1[C@@H]1CNC(=O)O1 | 43 µM | 37 µM | 
CN1CCC[C@H]1[C@H]1COc2ccccc2O1.Cl | 14.6 µM | 0.47 µM | 1.67 µM
CN1CCC[C@@H]1[C@@H]1COc2ccccc2O1.Cl | 14.8 µM | 43.8 µM | 6.67 µM
Cl.c1ccc2c(c1)OC[C@@H]([C@H]1CCCN1)O2 | 27 µM | 11.6 µM | 6.33 µM
CN1CCC[C@@H]1[C@H]1CNC(=O)O1 | 100 µM | 40 µM | 
Cl.c1ccc2c(c1)OC[C@H]([C@H]1CCCN1)O2 | 14.7 µM | 88 µM | 14 µM
CN1CCC[C@H]1[C@@H]1COc2ccccc2O1 | 21 µM | 0.26 µM | 
CN1CCC[C@@H]1[C@H]1COc2ccccc2O1 | 35 µM | 12.5 µM | 
Cl.c1ccc2c(c1)OC[C@H]([C@@H]1CCCN1)O2 | 32.2 µM | 14.4 µM | 0.64 µM
CN1CCC[C@H]1[C@@H]1CNC(=O)O1 | 21 µM | 2.7 µM | 
Cl.c1ccc2c(c1)OC[C@@H]([C@@H]1CCCN1)O2 | 36 µM | 2.1 µM | 1.35 µM
